Like-named read-outs stand apart in the source and are kept apart here. Numbered stars: 1 amine (or outer) side, 2 acyl side, 3 side chain; on linkers, the order of the positions; unused ones are H or OH. Square brackets hold non-standard residues; d marks the D form. Side chains are listed from the residue outwards. Peptide text beside a SMILES is read from it. * marks the point of attachment. C20 diacid = O=C(O)CCCCCCCCCCCCCCCCCCC(=O)*; C18 diacid = O=C(O)CCCCCCCCCCCCCCCCC(=O)*; γGlu = O=C(O)[C@H](CCC(=O)[*:2])N[*:1]; αMeF = C[C@](N)(Cc1ccccc1)C(=O)O; αMeL = CC(C)C[C@](C)(N)C(=O)O; AEEA = NCCOCCOCC(=O)O; Aib = CC(C)(N)C(=O)O

For assay [1], the target named is human GLP-1 receptor (GLP-1R) (Homo sapiens, UniProt P43220). Kind of assay: cAMP pharmacological functional assay in presence of casein, hGLP-1R. The assay is classed as cell-based.
The target in assay [2] is T1, human GLP-1R (Homo sapiens, UniProt P43220). Nature of the assay: [125I]-GLP-1 binding (SPA), human GLP-1 receptor. The arrangement: expressed in transfected cells; crude membranes. The essentials: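 Membranes: hypotonic lysis (50 mM Tris HCl, pH 7.5, protease inhibitors), Potter-Elvehjem homogenization, high-speed pellet (35000×g 1 h or 25000×g 30 min, 4° C.). Buffer: 25 mM HEPES pH 7.4, 2.5 mM CaCl2, 1 mM MgCl2. Four-parameter IC50 fit; Ki as geometric mean ± SEM.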

Assay [3] addresses T2, gastric inhibitory peptide receptor (GIPR) (Homo sapiens, UniProt P48546).
T2 sequence (P48546 22-466): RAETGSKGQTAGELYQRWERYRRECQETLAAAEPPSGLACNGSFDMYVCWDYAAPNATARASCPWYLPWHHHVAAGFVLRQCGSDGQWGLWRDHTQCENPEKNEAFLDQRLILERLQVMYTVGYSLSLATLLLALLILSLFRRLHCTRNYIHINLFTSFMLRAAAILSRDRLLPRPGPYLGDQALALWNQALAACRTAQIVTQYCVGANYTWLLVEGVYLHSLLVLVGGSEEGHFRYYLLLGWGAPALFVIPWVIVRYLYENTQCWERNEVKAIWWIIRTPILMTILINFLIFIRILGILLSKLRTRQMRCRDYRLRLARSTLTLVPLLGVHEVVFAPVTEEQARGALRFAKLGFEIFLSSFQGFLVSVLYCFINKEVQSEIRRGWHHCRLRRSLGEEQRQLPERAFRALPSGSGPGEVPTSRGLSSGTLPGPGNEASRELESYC
Kind of assay: cAMP pharmacological functional assay in presence of casein, hGIPR. The assay is classed as cell-based.

A further assay concerns the target T3, human Gcg receptor (Homo sapiens, UniProt P47871).
T3 construct: expressed in transfected cells; crude membranes
Kind of assay: [125I]-Glucagon binding (SPA), human Gcg receptor. Summed up:
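Crude membranes from cells expressing the receptor, prepared by hypotonic lysis in 50 mM Tris HCl pH 7.5 with protease inhibitors, homogenization and differential centrifugation, were used in a WGA-bead SPA. Binding buffer: 25 mM HEPES pH 7.4, 2.5 mM CaCl2, 1 mM MgCl2, bacitracin, Tween-20.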

In assay [4] the target is T1, human GLP-1R. Nature of the assay: GLP-1R HEK293 cell membrane [35S]GTPγS binding assay. The class given is biochemical. Set-up: expressed in transfected cells; host or cells: HEK293 cells expressing human GLP-1R; membranes. The essentials:
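Agonist-driven Gαs activation read as [35S]GTPγS ([…]) binding to receptor-expressing HEK293 membranes, 30 min at room temperature, pH 7.4. Detection by anti-Gαs immunocapture on scintillation beads; EC50 derived from four-parameter logistic concentration-response fit.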

Setting [5] is: HEK293 cells expressing hGLP-1R, 0.1% Casein, geometric mean, read-out: hGLP1R cAMP Rel EC50 nM (SEM, n).
Setting [6] is: read-out: hGLP1R Ki, (nM) (SEM, n).
Where [7] appears, read: HEK293 cells expressing hGIPR, 0.1% Casein, geometric mean, read-out: hGIPR cAMP Rel EC50 nM (SEM, n).
Where [8] appears, read: read-out: hGLcgR Ki, nM (SEM, n).
[9] abbreviates: HEK293 cell membranes expressing human GLP-1R, [35S]GTPγS binding, read-out: hGLP1R GTPgS Rel EC50 nM (SEM, n).

T1 sequence (P43220 24-463): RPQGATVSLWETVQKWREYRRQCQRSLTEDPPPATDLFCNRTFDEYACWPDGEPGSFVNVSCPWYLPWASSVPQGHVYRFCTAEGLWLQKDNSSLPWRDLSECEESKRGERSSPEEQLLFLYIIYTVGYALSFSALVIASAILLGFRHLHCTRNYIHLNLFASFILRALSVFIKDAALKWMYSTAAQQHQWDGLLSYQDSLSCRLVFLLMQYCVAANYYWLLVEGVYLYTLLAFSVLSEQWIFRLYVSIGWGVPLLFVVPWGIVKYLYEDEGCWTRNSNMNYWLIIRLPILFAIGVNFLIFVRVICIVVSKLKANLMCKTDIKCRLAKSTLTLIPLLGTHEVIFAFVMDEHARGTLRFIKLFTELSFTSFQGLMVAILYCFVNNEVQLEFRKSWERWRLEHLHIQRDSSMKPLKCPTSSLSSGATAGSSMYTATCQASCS
Chain of human GLP-1 receptor (GLP-1R) (P43220 24-463): as above
T3 sequence (P47871 26-477): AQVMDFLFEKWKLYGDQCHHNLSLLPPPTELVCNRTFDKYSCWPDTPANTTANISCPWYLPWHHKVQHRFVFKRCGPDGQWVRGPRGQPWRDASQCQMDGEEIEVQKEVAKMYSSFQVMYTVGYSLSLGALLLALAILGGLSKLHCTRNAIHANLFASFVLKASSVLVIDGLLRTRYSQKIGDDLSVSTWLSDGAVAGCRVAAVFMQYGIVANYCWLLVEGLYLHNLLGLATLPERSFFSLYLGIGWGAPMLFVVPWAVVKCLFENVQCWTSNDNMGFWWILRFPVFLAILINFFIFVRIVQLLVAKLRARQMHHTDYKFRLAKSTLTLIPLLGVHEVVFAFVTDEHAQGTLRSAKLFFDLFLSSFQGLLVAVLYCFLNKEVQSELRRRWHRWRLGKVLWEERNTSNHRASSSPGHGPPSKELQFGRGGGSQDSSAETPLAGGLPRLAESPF

Turning to `CC[C@H](C)[C@H](NC(=O)[C@H](CC(C)C)NC(=O)[C@](C)(Cc1ccc(O)cc1)NC(=O)[C@@H](CCC(=O)O)NC(=O)[C@@H](NC(=O)[C@H](Cc1ccccc1)NC(=O)[C@H](CCC(=O)O)NC(=O)C(C)(C)NC(=O)[C@H](CCC(N)=O)NC(=O)[C@H](C)NC(=O)[C@H](CCCCNC(=O)COCCOCCNC(=O)COCCOCCNC(=O)CC[C@H](NC(=O)CCCCCCCCCCCCCCCCC(=O)O)C(=O)O)NC(=O)[C@H](CCCN)NC(=O)[C@H](CC(=O)O)NC(=O)[C@H](CC(C)C)NC(=O)[C@](C)(CC(C)C)NC(=O)[C@@H](NC(=O)[C@H](CO)NC(=O)[C@H](Cc1ccncc1)NC(=O)[C@H](CC(=O)O)NC(=O)[C@H](CO)NC(=O)[C@@H](NC(=O)[C@](C)(Cc1ccccc1F)NC(=O)[C@@H](NC(=O)CNC(=O)[C@H](CCC(=O)O)NC(=O)C(C)(C)NC(=O)[C@@H](N)Cc1ccc(O)cc1)[C@@H](C)O)[C@@H](C)O)[C@@H](C)CC)[C@@H](C)CC)C(=O)N[C@@H](CCC(=O)O)C(=O)NCC(=O)NCC(=O)N1CCC[C@H]1C(=O)N[C@@H](CO)C(=O)N[C@@H](CO)C(=O)NCC(=O)N[C@@H](C)C(=O)N1CCC[C@H]1C(=O)N1CCC[C@H]1C(=O)N1CCC[C@H]1C(=O)N[C@@H](CO)C(N)=O` [Example 4], the results for the EC50 (in assay [1]; in assay [3]; on human GLP-1R [4]) were 0.0297 nM, 0.0272 nM and 0.245 nM, respectively. The Ki at human GLP-1R [2] worked out at 1.63 nM; at human Gcg receptor it was 686 nM.

On to `CC[C@H](C)[C@H](NC(=O)[C@H](CC(C)C)NC(=O)[C@H](Cc1ccc(O)cc1)NC(=O)[C@H](CCC(=O)O)NC(=O)[C@@H](NC(=O)[C@H](Cc1ccccc1)NC(=O)[C@H](C)NC(=O)C(C)(C)NC(=O)[C@H](CCC(N)=O)NC(=O)[C@H](C)NC(=O)[C@H](CCCCNC(=O)COCCOCCNC(=O)COCCOCCNC(=O)CC[C@H](NC(=O)CCCCCCCCCCCCCCCCC(=O)O)C(=O)O)NC(=O)[C@H](CCC(=O)O)NC(=O)[C@H](CC(=O)O)NC(=O)[C@H](CC(C)C)NC(=O)[C@](C)(CC(C)C)NC(=O)[C@@H](NC(=O)[C@H](CO)NC(=O)[C@H](Cc1ccc(O)cc1)NC(=O)[C@H](CC(=O)O)NC(=O)[C@H](CO)NC(=O)[C@@H](NC(=O)[C@H](Cc1ccccc1)NC(=O)[C@@H](NC(=O)CNC(=O)[C@H](CCC(=O)O)NC(=O)C(C)(C)NC(=O)[C@@H](N)Cc1ccc(O)cc1)[C@@H](C)O)[C@@H](C)O)[C@@H](C)CC)[C@@H](C)CC)C(=O)N[C@@H](CCC(=O)O)C(=O)NCC(=O)NCC(=O)N1CCC[C@H]1C(=O)N[C@@H](CO)C(=O)N[C@@H](CO)C(=O)NCC(N)=O` [Example 303] (H-Y[Aib]EGTFTSDYSI[αMeL]LDEK([AEEA-AEEA-γGlu-C18 diacid])AQ[Aib]AFIEYLIEGGPSSG-NH2), for which the EC50 stood at 0.104 nM in assay [1] (setting [5]), 0.0254 nM in assay [3] (setting [7]) and 0.547 nM at human GLP-1R [4] (setting [9]). The figures for the inhibitory constant (Ki) at human GLP-1R [2] (setting [6]) and on human Gcg receptor (setting [8]) were 3.69 nM and 502 nM, respectively.

As to `CC[C@H](C)[C@H](NC(=O)[C@H](CC(C)C)NC(=O)[C@H](Cc1ccc(O)cc1)NC(=O)[C@H](CCC(=O)O)NC(=O)[C@@H](NC(=O)[C@H](Cc1ccccc1)NC(=O)[C@H](CCC(=O)O)NC(=O)C(C)(C)NC(=O)[C@H](CCC(N)=O)NC(=O)[C@H](C)NC(=O)[C@H](CCCCNC(=O)COCCOCCNC(=O)COCCOCCNC(=O)CC[C@H](NC(=O)CCCCCCCCCCCCCCCCCCC(=O)O)C(=O)O)NC(=O)[C@H](CCCCN)NC(=O)[C@H](CC(=O)O)NC(=O)[C@H](CC(C)C)NC(=O)[C@](C)(CC(C)C)NC(=O)[C@@H](NC(=O)[C@H](CO)NC(=O)[C@H](Cc1ccc(O)cc1)NC(=O)[C@H](CC(=O)O)NC(=O)[C@H](CO)NC(=O)[C@@H](NC(=O)[C@H](Cc1ccccc1)NC(=O)[C@@H](NC(=O)CNC(=O)[C@H](CCC(=O)O)NC(=O)C(C)(C)NC(=O)[C@@H](N)Cc1ccc(O)cc1)[C@@H](C)O)[C@@H](C)O)[C@@H](C)CC)[C@@H](C)CC)C(=O)N[C@@H](C)C(=O)NCC(=O)NCC(=O)N1CCC[C@H]1C(=O)N[C@@H](CO)C(=O)N[C@@H](CO)C(=O)NCC(=O)N[C@@H](C)C(=O)N1CCC[C@H]1C(=O)N1CCC[C@H]1C(=O)N1CCC[C@H]1C(=O)N[C@@H](CO)C(N)=O` [Example 289] (H-Y[Aib]EGTFTSDYSI[αMeL]LDKK([AEEA-AEEA-γGlu-C20 diacid])AQ[Aib]EFIEYLIAGGPSSGAPPPS-NH2), the EC50 in assay [1] (setting [5]) worked out at 0.0544 nM; in assay [3] (setting [7]) it was 0.0228 nM; on human GLP-1R [4] (setting [9]), 0.404 nM. Moreover, the values for the Ki at human GLP-1R [2] (setting [6]) and on human Gcg receptor (setting [8]) were 2.63 nM and over 1050 nM, respectively.

As for `CC[C@H](C)[C@H](NC(=O)[C@H](CC(C)C)NC(=O)[C@H](Cc1ccc(O)cc1)NC(=O)[C@H](CCC(=O)O)NC(=O)[C@@H](NC(=O)[C@H](Cc1ccccc1)NC(=O)[C@H](C)NC(=O)C(C)(C)NC(=O)[C@H](CCC(N)=O)NC(=O)[C@H](C)NC(=O)[C@H](CCCCNC(=O)COCCOCCNC(=O)COCCOCCNC(=O)CC[C@H](NC(=O)CCCCCCCCCCCCCCCCCCC(=O)O)C(=O)O)NC(=O)[C@H](CCCCN)NC(=O)[C@H](CC(=O)O)NC(=O)[C@H](CC(C)C)NC(=O)[C@H](CC(C)C)NC(=O)[C@@H](NC(=O)[C@H](CO)NC(=O)[C@H](Cc1ccc(O)cc1)NC(=O)[C@H](CC(=O)O)NC(=O)[C@H](CO)NC(=O)[C@@H](NC(=O)[C@H](Cc1ccccc1)NC(=O)[C@@H](NC(=O)CNC(=O)[C@H](CCC(=O)O)NC(=O)C(C)(C)NC(=O)[C@@H](N)Cc1ccc(O)cc1)[C@@H](C)O)[C@@H](C)O)[C@@H](C)CC)[C@@H](C)CC)C(=O)N[C@@H](C)C(=O)NCC(=O)NCC(=O)N1CCC[C@H]1C(=O)N[C@@H](CO)C(=O)N[C@@H](CO)C(=O)NCC(=O)N[C@@H](C)C(=O)N1CCC[C@H]1C(=O)N1CCC[C@H]1C(=O)N1CCC[C@H]1C(=O)N[C@@H](CO)C(N)=O` [Example 288] (H-Y[Aib]EGTFTSDYSILLDKK([AEEA-AEEA-γGlu-C20 diacid])AQ[Aib]AFIEYLIAGGPSSGAPPPS-NH2; N-terminus assumed), the EC50 in assay [1] (setting [5]) came out at 0.172 nM; in assay [3] (setting [7]), 0.0732 nM; on human GLP-1R [4] (setting [9]) it was 0.666 nM. Moreover, the values for the Ki at human GLP-1R [2] (setting [6]) and at human Gcg receptor (setting [8]) were 1.6 nM and 345 nM, respectively.

With `CC[C@H](C)[C@H](NC(=O)[C@H](CC(C)C)NC(=O)[C@H](Cc1ccc(O)cc1)NC(=O)[C@H](CCC(=O)O)NC(=O)[C@@H](NC(=O)[C@H](Cc1ccccc1)NC(=O)[C@H](C)NC(=O)C(C)(C)NC(=O)[C@H](CCC(N)=O)NC(=O)[C@H](C)NC(=O)[C@H](CCCCNC(=O)COCCOCCNC(=O)COCCOCCNC(=O)CC[C@H](NC(=O)CCCCCCCCCCCCCCCCC(=O)O)C(=O)O)NC(=O)[C@H](CCCCN)NC(=O)[C@H](CC(=O)O)NC(=O)[C@H](CC(C)C)NC(=O)[C@H](CC(C)C)NC(=O)[C@@H](NC(=O)[C@H](CO)NC(=O)[C@H](Cc1ccc(O)cc1)NC(=O)[C@H](CC(=O)O)NC(=O)[C@H](CO)NC(=O)[C@@H](NC(=O)[C@](C)(Cc1ccccc1)NC(=O)[C@@H](NC(=O)CNC(=O)[C@H](CCC(=O)O)NC(=O)C(C)(C)NC(=O)[C@@H](N)Cc1ccc(O)cc1)[C@@H](C)O)[C@@H](C)O)[C@@H](C)CC)[C@@H](C)CC)C(=O)N[C@@H](CCC(=O)O)C(=O)NCC(=O)NCC(=O)N1CCC[C@H]1C(=O)N[C@@H](CO)C(=O)N[C@@H](CO)C(=O)NCC(N)=O` [Example 301] (H-Y[Aib]EGT[αMeF]TSDYSILLDKK([AEEA-AEEA-γGlu-C18 diacid])AQ[Aib]AFIEYLIEGGPSSG-NH2), the figures for the EC50 (in assay [1] (setting [5]); in assay [3] (setting [7]); on human GLP-1R [4] (setting [9])) were 0.0441 nM, 0.0346 nM and 0.435 nM, respectively. The Ki was determined as 0.875 nM at human GLP-1R [2] (setting [6]) and 44.4 nM on human Gcg receptor (setting [8]).

As a reminder, the EC50 is the concentration giving half of the maximal effect. The Ki is a dissociation constant, usually derived from enzyme kinetics or from competition with a known ligand.

Values taken from US12252524B2, “GIP/GLP1 co-agonist compounds” (Eli Lilly and Company, priority 2018, dated 2025).
